Measurements reported in patent US9440992B2, “5,7-disubstituted thiazolo[4,5-D]pyrimidines as chemokine inhibitors” (Acturum Life Science AB, priority 2005, dated 2016).
Values belong to the compound of their own block, whether it stands above or below them.

Legend:
[1] = biological target: T1, CX3CR1 (Homo sapiens, UniProt P49238); experiment: [125I]-fractalkine competition receptor binding assay on hCX3CR1 membranes; conditions: 25° C. for 24 h
T1 construct: expressed in transfected cells; host or cells: human embryonic kidney suspension (HEKS) 293 cell line stably expressing chimeric G-protein Gαqi5; membranes
T1 sequence (P49238 1-355): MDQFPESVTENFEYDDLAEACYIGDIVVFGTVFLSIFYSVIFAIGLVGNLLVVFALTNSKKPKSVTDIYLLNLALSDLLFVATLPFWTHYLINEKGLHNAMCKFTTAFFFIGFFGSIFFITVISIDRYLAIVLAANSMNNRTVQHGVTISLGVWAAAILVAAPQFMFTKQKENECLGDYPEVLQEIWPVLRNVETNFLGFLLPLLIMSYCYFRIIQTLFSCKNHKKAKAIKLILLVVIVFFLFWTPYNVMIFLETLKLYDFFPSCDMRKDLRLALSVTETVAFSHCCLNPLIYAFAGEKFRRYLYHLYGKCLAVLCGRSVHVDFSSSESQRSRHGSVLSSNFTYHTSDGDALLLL

[2] = biological target: T2, CXCR2 (Homo sapiens, UniProt P25025); experiment: [125I]-hIL-8 competition binding (SPA) on membranes of cells expressing human CXCR2; conditions: receptor binding, [125I]-hIL-8, RT for 4 h
T2 construct: cultured under geneticin/G418 selection; membranes
T2 sequence (P25025 1-360): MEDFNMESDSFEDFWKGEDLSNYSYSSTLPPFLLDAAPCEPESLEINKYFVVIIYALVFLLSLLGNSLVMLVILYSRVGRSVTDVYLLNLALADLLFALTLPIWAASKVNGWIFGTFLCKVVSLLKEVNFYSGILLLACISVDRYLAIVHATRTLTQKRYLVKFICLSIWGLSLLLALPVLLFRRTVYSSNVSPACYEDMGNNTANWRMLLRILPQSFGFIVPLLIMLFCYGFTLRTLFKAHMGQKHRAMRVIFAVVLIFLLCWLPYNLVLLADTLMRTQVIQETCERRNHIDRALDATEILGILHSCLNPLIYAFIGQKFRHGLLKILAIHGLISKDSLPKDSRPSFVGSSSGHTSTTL
Procedure: Recombinant human fractalkine (hCX3CL1) and recombinant human interleukin-8 (IL-8 or hCXCL8) were purchased from PeproTech Inc., UK. Recombinant [^125I]-fractalkine (human) and [^125I] hIL-8 with the specific activity of 2200 Ci/mmol, was purchased from NEN® Life Science Products, Inc., UK. Fluo4-AM was purchased from Molecular Probes, US. All other chemicals were of analytical grade.
Cells expressing human CXCR2 obtained from AstraZeneca Charnwood are cultured in EMEM containing Glutamax and supplemented with 10% FBS (from PAA, Austria), 1% non-essential amino acids (NEAA), 100 U/mL penicillin and 100 μg/mL streptomycin (PEST) and 500 μg/mL geneticin/G418.
Cells are grown at 37° C. and 5% CO2 and harvested at 60-80% confluence in buffer containing 10 mM Tris-HCl pH 7.4, 5 mM EDTA, 0.1 mg/mL bacitracin. The cells are centrifuged at 300×g for 10 min and the pellet is resuspended in harvesting buffer (10 mM Tris-HCl, pH 7.4, 5 mM ethylenediaminetetra-aceticacid (EDTA) and 0.1 mg/mL bacitracin), pooled and homogenised using a Dounce homogeniser. The homogenate is centrifuged in 48000×g for 10 min and resuspended in harvesting buffer using Ultra-Turrax T8. Membrane aliquots are stored at −80° C. Protein concentration was determined in microtiter plates as described by Harrington (1990, Anal. Biochem. 186, 285-287).
The [^125I]-hIL-8 competition binding studies are performed in singlicates in white clear bottom 96-well isoplates with a final volume of 200 μL and each well contains 150 pM [^125I]-hIL-8 (specific activity 2200 Ci/mmol), membrane-SPA preparation equivalent to 20 pM receptors and 1.5 mg SPA-beads in assay buffer [50 mM HEPES-KOH pH 7.4, 10 mM MgCl2, 1 mM EDTA, 0.5% (w/v) gelatin]. The test compounds were treated as above. The non-specific binding is determined in the presence of 500 nM unlabelled hIL-8. The agonist hIL-8 (a concentration-response curve from 3 pM to 30 nM), is used as reference compound at each test occasion. […] The binding reaction is started by addition of 140 μL membrane-SPA preparation, and the samples are incubated in dark at RT for 4 h. Assay plates are counted in a liquid scintillation counter (Wallac MicroBeta® TriLux 1450 from PerkinElmer, USA).

Compound: CC(C)C[C@H](CO)Nc1nc(SC(C)c2ccccc2)nc2nc(N)sc12 (stereo partly drawn)
Ki [1]: 3.8 nM
Ki [2]: 3430 nM

Compound: CCC[C@H](CO)Nc1nc(S[C@@H](C)c2ccccc2)nc2nc(N)sc12
Ki [1]: 52 nM
Ki [2]: 1140 nM

Compound: CC(C)C[C@H](CO)Nc1nc(SCc2ccccc2Cl)nc2nc(N)sc12 [reference compound]
Ki [1]: 51 nM
Ki [2]: 1810 nM

Compound: CC(C)C[C@H](CO)Nc1nc(SCc2cccc(C#N)c2)nc2nc(N)sc12 [reference compound]
Ki [1]: 156 nM
Ki [2]: 1980 nM

Compound: CCC[C@H](CO)Nc1nc(SCc2ccccc2)nc2nc(N)sc12 [reference compound]
Ki [1]: 592 nM
Ki [2]: 540 nM

Continued by falling Ki [1], values first:

Ki [1]: 48 nM
Ki [2]: 531 nM
Compound: CC(C)C[C@H](CO)Nc1nc(SCc2ccccc2)nc2nc(N)sc12 [reference compound]

Ki [1]: 14 nM
Ki [2]: 4210 nM
Compound: CC(C)C[C@H](CO)Nc1nc(S[C@@H](C)c2cccc(C#N)c2)nc2nc(N)sc12

Ki [1]: 5.9 nM
Ki [2]: 5650 nM
Compound: CC(C)C[C@H](CO)Nc1nc(SC(C)c2ccccc2Cl)nc2nc(N)sc12 (stereo partly drawn)

Ki [1]: 3.1 nM
Ki [2]: 2760 nM
Compound: CCC(Sc1nc(N[C@@H](CO)CC(C)C)c2sc(N)nc2n1)c1ccccc1 (stereo partly drawn)
